Among the data in ChEMBL document CHEMBL4014316, “Amphiphilic Guanidinocalixarenes Inhibit Lipopolysaccharide (LPS)- and Lectin-Stimulated Toll-like Receptor 4 (TLR4) Signaling” (J Med Chem, 2017) are Activity, IC50 and inhibition values, retold here.

What all share (assay type): cell-based
The target in one data set is Toll-like receptor 4 (Homo sapiens, UniProt O00206). Nature of the data set: Activation of TLR4 signaling (unknown origin) expressed in HEK-Blue cells after 30 mins by secreted embryonic alkaline phosphatase reporter gene assay. The following applies: 0.5 h. (In general: Reporter assays use an easily measured gene product as a stand-in for the process of interest.)
The target of data set [1] is Toll-like receptor 4/MD-2/CD14 (Homo sapiens, UniProt O00206+P08571+Q9Y6Y9). As to the kind of experiment: (§1) Binding affinity to CD14/MD2 (unknown origin) expressed in HEK-Blue cells co-expressing TLR4 assessed as inhibition of LPS-induced TLR4 signaling preincubated for 30 mins followed by LPS stimulation measured after overnight incubation by secreted embryonic alkaline phosphatase reporter gene assay.

Data set [2] has as its target Toll-like receptor 4/MD-2/CD14 (Homo sapiens) (UniProt O00206+Q9Y6Y9+P08571). The description is as §1.
The nature of data set [3]: Cytotoxicity against HEK-Blue cells assessed as reduction in cell viability up to 10 uM measured after overnight incubation by MTT assay. The following applies: human. (In general: Tetrazolium dyes change colour on reduction, which living cells bring about.)

The IC50 is the point on the concentration scale where inhibition reaches its midpoint.

Toll-like receptor 4, sequence (O00206 whole entry): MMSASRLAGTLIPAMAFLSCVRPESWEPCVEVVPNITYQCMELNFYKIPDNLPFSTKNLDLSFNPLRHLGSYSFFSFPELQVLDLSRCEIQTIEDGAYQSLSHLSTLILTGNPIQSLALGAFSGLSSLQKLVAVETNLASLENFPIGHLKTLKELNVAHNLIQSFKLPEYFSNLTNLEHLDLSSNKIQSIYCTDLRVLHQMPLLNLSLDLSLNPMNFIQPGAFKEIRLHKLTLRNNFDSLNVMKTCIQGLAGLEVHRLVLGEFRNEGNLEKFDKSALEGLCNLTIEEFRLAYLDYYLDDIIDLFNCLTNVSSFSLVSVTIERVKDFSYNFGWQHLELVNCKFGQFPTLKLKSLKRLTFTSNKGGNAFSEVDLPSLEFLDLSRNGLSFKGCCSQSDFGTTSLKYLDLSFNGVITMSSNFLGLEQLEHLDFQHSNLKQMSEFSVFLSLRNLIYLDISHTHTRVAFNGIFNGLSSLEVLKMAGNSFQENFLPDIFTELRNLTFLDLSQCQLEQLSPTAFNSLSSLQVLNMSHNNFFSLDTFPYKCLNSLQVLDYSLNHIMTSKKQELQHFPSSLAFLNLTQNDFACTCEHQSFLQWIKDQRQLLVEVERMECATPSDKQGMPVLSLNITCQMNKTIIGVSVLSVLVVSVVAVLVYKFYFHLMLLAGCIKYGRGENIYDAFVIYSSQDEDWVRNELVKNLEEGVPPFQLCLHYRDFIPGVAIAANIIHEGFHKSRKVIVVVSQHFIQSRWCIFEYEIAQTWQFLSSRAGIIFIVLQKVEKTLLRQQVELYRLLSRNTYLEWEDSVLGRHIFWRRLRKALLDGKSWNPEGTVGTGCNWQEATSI
Toll-like receptor 4/MD-2/CD14, sequence (O00206 whole entry): as above
Toll-like receptor 4/MD-2/CD14, sequence (Q9Y6Y9 whole entry): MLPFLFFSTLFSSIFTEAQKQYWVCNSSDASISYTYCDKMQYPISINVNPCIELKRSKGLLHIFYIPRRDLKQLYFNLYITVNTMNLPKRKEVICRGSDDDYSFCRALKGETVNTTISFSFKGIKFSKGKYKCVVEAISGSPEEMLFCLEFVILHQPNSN
Toll-like receptor 4/MD-2/CD14, sequence (P08571 whole entry): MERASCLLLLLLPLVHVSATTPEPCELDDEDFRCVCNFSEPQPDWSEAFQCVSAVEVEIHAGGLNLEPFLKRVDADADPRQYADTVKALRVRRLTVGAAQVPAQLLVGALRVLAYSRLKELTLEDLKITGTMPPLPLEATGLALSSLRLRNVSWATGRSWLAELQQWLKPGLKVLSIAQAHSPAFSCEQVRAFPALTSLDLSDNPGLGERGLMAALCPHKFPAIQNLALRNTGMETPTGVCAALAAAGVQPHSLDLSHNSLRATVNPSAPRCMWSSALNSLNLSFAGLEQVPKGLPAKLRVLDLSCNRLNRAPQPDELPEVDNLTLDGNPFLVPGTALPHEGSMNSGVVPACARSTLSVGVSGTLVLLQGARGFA

In the case of `CC(C)(C)c1cc2c(OCCCCNC(=N)N)c(c1)Cc1cc(C(C)(C)C)cc(c1OCCCCNC(=N)N)Cc1cc(C(C)(C)C)cc(c1OCCCCNC(=N)N)Cc1cc(C(C)(C)C)cc(c1OCCCCNC(=N)N)C2.Cl.Cl.Cl.Cl`, at Toll-like receptor 4, the Activity entry is recorded as “Not Active”. Further, the IC50 in data set [1] worked out at 0.2 µM. Besides, the inhibition entry in data set [2] is “Dose-dependent effect”.
As to `CC(C)(C)c1cc2c(OCCCNC(=N)N)c(c1)Cc1cc(C(C)(C)C)cc(c1OCCCNC(=N)N)Cc1cc(C(C)(C)C)cc(c1OCCCNC(=N)N)Cc1cc(C(C)(C)C)cc(c1OCCCNC(=N)N)C2.Cl.Cl.Cl.Cl`, at Toll-like receptor 4, the Activity result is listed as “Not Active”. Moreover, the IC50 in data set [1] worked out at 10 µM. For the same molecule, in data set [2], the inhibition result is “Dose-dependent effect”.
For the molecule `CCCCCCOc1c2cc(NC(=N)N)cc1Cc1cc(NC(=N)N)cc(c1OCCCCCC)Cc1cc(NC(=N)N)cc(c1OCCCCCC)Cc1cc(NC(=N)N)cc(c1OCCCCCC)C2.Cl.Cl.Cl.Cl`, the Activity entry on Toll-like receptor 4 is given as “Not Active”; in data set [3] it was “Non-Toxic”.
In the case of `CCCOc1c2cc(NC(=N)N)cc1Cc1cc(NC(=N)N)cc(c1OCCC)Cc1cc(NC(=N)N)cc(c1OCCC)Cc1cc(NC(=N)N)cc(c1OCCC)C2.Cl.Cl.Cl.Cl`, the figures for the Activity result (at Toll-like receptor 4; in data set [3]) were “Not Active” and “Non-Toxic”, respectively.
